The values that follow come from patent US20140057915A1, “KINASE INHIBITORS” (TOPIVERT PHARMA LIMITED, priority 2012, published 2014).

Series [1] has as its system IL-8 release, d-U937 cells. As to the kind of experiment: LPS-induced IL-8 release in d-U937 cells. The settings on record: Homo sapiens, dU937; Table 4c1; read-out: LPS Induced Release of Cytokine in d-U937 Cells, IL-8 IC50. Format: cell-based. The method, then:
(§1) (a) LPS-Induced TNFα/IL-8 Release in d-U937Cells
U937 cells, a human monocytic cell line, are differentiated into macrophage-type cells by incubation with PMA (100 ng/mL) for 48 to 72 hr. Cells are pre-incubated with final concentrations of test compound for 2 hr and are then stimulated with LPS (0.1 μg/mL; from E. Coli: 0111:B4, Sigma) for 4 hr. […] The relative 50% effective concentration (REC50) is determined from the resultant concentration-response curve.

The next series has as its target GSK3α (Homo sapiens, UniProt P49840). As to the kind of experiment: GSK 3α enzyme inhibition (FRET), Method 1. The format is biochemical. The conditions noted are these: Table 4a1. As to the method:
(§2) The enzyme inhibitory activities of compounds disclosed herein are determined by FRET using synthetic peptides labelled with both donor and acceptor fluorophores (Z-LYTE, Invitrogen Ltd., Paisley, UK).
The following two assay variants are used for determination of GSK 3a inhibition.
The inhibitory activities of compounds of the invention against the GSK 3a enzyme isoform (Invitrogen), are evaluated by determining the level of activation/phosphorylation of the target peptide. The GSK3-α protein (500 ng/mL, 2.5 μL) is mixed with the test compound (2.5 μL at either 4 μg/mL, 0.4 μg/mL, 0.04 μg/mL, or 0.004 μg/mL) for 2 hr at RT. The FRET peptide (8 μM, 2.5 μL), which is a phosphorylation target for GSK3α, and ATP (40 μM, 2.5 μL) are then added to the enzyme/compound mixture and the resulting mixture incubated for 1 hr. Development reagent (protease, 5 μL) is added for 1 hr prior to detection in a fluorescence microplate reader (Varioskan® Flash, ThermoFisher Scientific).
(§3) In all cases, the site-specific protease cleaves non-phosphorylated peptide only and eliminates the FRET signal. Phosphorylation levels of each reaction are calculated using the ratio of coumarin emission (donor) over fluorescein emission (acceptor), for which high ratios indicate high phosphorylation and low ratios indicate low phosphorylation levels.

The target in another series is cSrc (Homo sapiens, UniProt P12931). Kind of series: c-Src enzyme inhibition (FRET). The format is biochemical. The conditions noted are these: Table 4a1. The method, then:
as §2
(§4) The relevant enzyme (3000 ng/mL or 2000 ng/mL respectively, 2.5 μL) is incubated with the test compound (either 4 μg/mL, 0.4 μg/mL, 0.04 μg/mL, or 0.004 μg/mL, 2.5 μL each) for 2 hr at RT. The FRET peptides (8 μM, 2.5 μL), and appropriate ATP solutions (2.5 μL, 800 μM for c-Src, and 60 μM ATP for Syk) are then added to the enzymes/compound mixtures and incubated for 1 hr. Development reagent (protease, 5 μL) is added for 1 hr prior to detection in a fluorescence microplate reader (Varioskan® Flash, ThermoFisher Scientific).
as §3

Series [2] deals with TNFα release, d-U937 cells. As to the kind of experiment: LPS-induced TNFα release in d-U937 cells. The format is cell-based. The settings on record: Homo sapiens, dU937; relative to 10 μg/mL BIRB796; Table 4c1; read-out: LPS Induced Release of Cytokine in d-U937 Cells, TNFα REC50. The method, then:
as §1
U937 cells, a human monocytic cell line, are differentiated into macrophage-type cells by incubation with PMA (100 ng/mL) for 48 to 72 hr. Cells are pre-incubated with final concentrations of test compound for 2 hr and are then stimulated with LPS (0.1 μg/mL; from E. Coli: 0111:B4, Sigma) for 4 hr. The supernatant is collected for determination of TNFα and IL-8 concentrations by sandwich ELISA (Duo-set, R&D systems). […] The relative 50% effective concentration (REC50) is determined from the resultant concentration-response curve. The inhibition of IL-8 production is calculated at each concentration of test compound by comparison with vehicle control.

The next series deals with d-U937 cells. As to the kind of experiment: Cell viability: MTT assay. The format is cell-based, human. The conditions noted are these: 1 μg/mL. As to the method:
(l) The Effect of Test Compounds on Cell Viability: MTT Assay
Differentiated U937 cells are pre-incubated with each test compound (final concentration 1 μg/mL or 10 μg/mL in 200 μL media indicated below) under two protocols: the first for 4 hr in 5% FCS RPMI1640 media and the second in 10% FCS RPMI1640 media for 24 h. The supernatant is replaced with new media (200 μL) and MTT stock solution (10 μL, 5 mg/mL) is added to each well. After incubation for 1 hr the media are removed, DMSO (200 μL) is added to each well and the plates are shaken lightly for 1 hr prior to reading the absorbance at 550 nm. The percentage loss of cell viability is calculated for each well relative to vehicle (0.5% DMSO) treatment. Consequently an apparent increase in cell viability for drug treatment relative to vehicle is tabulated as a negative percentage.

Series [3] relates to ICAM-1 expression, BEAS2B cells. Kind of series: Poly I:C-induced ICAM-1 expression in BEAS2B cells. Format: cell-based. The settings on record: Homo sapiens, BEAS-2B; read-out: Poly IC induced ICAM1 in BEAS2B, IC50. As to the method: (f) Poly I:C-Induced ICAM-1 Expression in BEAS2B Cells
Poly I:C is used in these studies as a simple, RNA virus mimic. Poly I:C-Oligofectamine mixture (1 μg/mL Poly I:C, ±2% Oligofectamine, 25 μL; Invivogen Ltd., San Diego, Calif., and Invitrogen, Carlsbad, Calif., respectively) is transfected into BEAS2B cells (human bronchial epithelial cells, ATCC). Cells are pre-incubated with final concentrations of test compounds for 2 hr and the level of ICAM1 expression on the cell surface is determined by cell-based ELISA. At a time point 18 hr after poly I:C transfection, cells are fixed with 4% formaldehyde in PBS (100 μL) and then endogenous peroxidase is quenched by the addition of washing buffer (100 μL, 0.05% Tween in PBS: PBS-Tween) containing 0.1% sodium azide and 1% hydrogen peroxide. Cells are washed with wash-buffer (3×200 μL). and after blocking the wells with 5% milk in PBS-Tween (100 μL) for 1 hr, the cells are incubated with anti-human ICAM-1 antibody (50 μL; Cell Signalling Technology, Danvers, Mass.) in 1% BSA PBS overnight at 4° C.
The cells are washed with PBS-Tween (3×200 μL) and incubated with the secondary antibody (100 μL; HRP-conjugated anti-rabbit IgG, Dako Ltd., Glostrup, Denmark). […] The ICAM-1 signal is detected by reading the absorbance at 450 nm against a reference wavelength of 655 nm using a spectrophotometer. The cells are then washed with PBS-Tween (3×200 μL) and total cell numbers in each well are determined by reading absorbance at 595 nm after Crystal Violet staining (50 μL of a 2% solution in PBS) and elution by 1% SDS solution (100 μL) in distilled water. The measured OD 450-655 readings are corrected for cell number by dividing with the OD595 reading in each well. The inhibition of ICAM-1 expression is calculated at each concentration of test compound by comparison with vehicle control.

A further series deals with Syk (Homo sapiens, UniProt P43405). As to the kind of experiment: Syk enzyme inhibition (FRET). The format is biochemical. The settings on record: Table 4a1. The method, then: as §2, §4, §3

Each structure is given as a SMILES string.

Sequence of GSK3α (P49840 whole entry): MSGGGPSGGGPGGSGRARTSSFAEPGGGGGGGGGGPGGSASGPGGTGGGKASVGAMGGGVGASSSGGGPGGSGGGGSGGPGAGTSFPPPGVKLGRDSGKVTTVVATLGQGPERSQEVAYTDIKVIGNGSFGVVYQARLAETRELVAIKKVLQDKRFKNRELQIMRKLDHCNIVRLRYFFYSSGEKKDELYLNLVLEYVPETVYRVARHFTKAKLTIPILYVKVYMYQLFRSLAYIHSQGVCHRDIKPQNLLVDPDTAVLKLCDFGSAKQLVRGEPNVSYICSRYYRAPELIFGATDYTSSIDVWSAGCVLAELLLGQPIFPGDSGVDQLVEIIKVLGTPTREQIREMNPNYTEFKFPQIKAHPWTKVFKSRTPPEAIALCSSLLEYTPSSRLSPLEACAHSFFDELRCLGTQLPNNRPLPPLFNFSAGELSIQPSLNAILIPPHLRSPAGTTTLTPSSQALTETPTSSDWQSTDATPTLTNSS
Sequence of cSrc (P12931 whole entry): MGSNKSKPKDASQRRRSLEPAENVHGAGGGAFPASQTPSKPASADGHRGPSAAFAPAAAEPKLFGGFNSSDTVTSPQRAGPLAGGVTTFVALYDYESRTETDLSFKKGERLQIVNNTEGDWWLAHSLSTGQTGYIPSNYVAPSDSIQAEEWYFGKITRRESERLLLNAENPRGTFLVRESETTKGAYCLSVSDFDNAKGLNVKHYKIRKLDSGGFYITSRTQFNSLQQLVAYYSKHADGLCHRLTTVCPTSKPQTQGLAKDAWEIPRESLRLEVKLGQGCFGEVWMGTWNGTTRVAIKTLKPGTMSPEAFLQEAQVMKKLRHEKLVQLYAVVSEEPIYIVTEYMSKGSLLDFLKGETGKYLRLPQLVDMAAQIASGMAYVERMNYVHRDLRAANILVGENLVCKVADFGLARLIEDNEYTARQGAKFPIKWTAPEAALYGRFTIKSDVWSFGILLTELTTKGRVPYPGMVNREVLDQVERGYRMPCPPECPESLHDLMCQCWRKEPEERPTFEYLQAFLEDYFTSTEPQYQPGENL

The IC50 is the concentration needed to halve the response being measured. In the case of `Cc1ccc(-n2nc(C(C)(C)C)cc2NC(=O)Nc2ccc(Oc3ccnc(Nc4cccc(C(=O)NCCN5CCOCC5)c4)n3)c3ccccc23)cc1` [Example 3, 3-((4-((4-(3-(3-(tert-Butyl)-1-(p-tolyl)-1H-pyrazol-5-yl)ureido)naphthalen-1-yl)oxy)pyrimidin-2-yl)amino)-N-(2-morpholinoethyl)benzamide], the concentration for half-maximal inhibition (IC50) in series [1] came out at 1.6 nM; on GSK3α it was 286 nM; against cSrc, 1 nM; in series [3], 0.7 nM; at Syk it was 11 nM. Moreover, the EC50 in series [2] was determined as 0.6 nM. The “Cell viability at time point in d-U937 cells, 4 h” value in the series on d-U937 cells was “−ve (−ve and +ve indicate that the value is below and above respectively, the no significant effect threshold, defined as 30% inhibition at 1 μg/mL at the time point indicated)”. Also, in the series with d-U937 cells, the “Cell viability at time point in d-U937 cells, 24 h” value (shortened to “Cell viability at time point … 24 h”) was “−ve (−ve and +ve indicate that the value is below and above respectively, the no significant effect threshold, defined as 30% inhibition at 1 μg/mL at the time point indicated)”.

For the compound `COc1cc(C(=O)NCCO)ccc1Nc1nccc(Oc2ccc(NC(=O)Nc3cc(C(C)(C)C)nn3-c3ccc(C)cc3)c3ccccc23)n1` [Example 4, 4-((4-((4-(3-(3-(tert-Butyl)-1-(p-tolyl)-1H-pyrazol-5-yl)ureido)naphthalen-1-yl)oxy)pyrimidin-2-yl)amino)-N-(2-hydroxyethyl)-3-methoxybenzamide], the half-maximal inhibitory concentration (IC50) in series [1] is 6.6 nM; against GSK3α, above 14300 nM; against cSrc it was 49 nM; in series [3], 4.6 nM; on Syk, 124 nM. In series [2], the EC50 was 0.7 nM. Besides, in the series on d-U937 cells, the “Cell viability at time point in d-U937 cells, 4 h” value is “−ve (−ve and +ve indicate that the value is below and above respectively, the no significant effect threshold, defined as 30% inhibition at 1 μg/mL at the time point indicated)”. In the series with d-U937 cells, the “Cell viability at time point … 24 h” value is “−ve (−ve and +ve indicate that the value is below and above respectively, the no significant effect threshold, defined as 30% inhibition at 1 μg/mL at the time point indicated)”.

For the compound `COc1ccc(-n2nc(C(C)C)cc2NC(=O)Nc2ccc(Oc3ccnc(Nc4cc(OC)cc(C(=O)NCCN(C)C)c4)n3)c3ccccc23)cc1` [Example 6], the IC50 in series [1] was found to be 1.9 nM; at GSK3α, 634 nM; on cSrc, 2 nM; in series [3], 1.2 nM; at Syk, 5 nM. Further, the EC50 in series [2] worked out at 0.2 nM. The “Cell viability at time point in d-U937 cells, 4 h” value in the series with d-U937 cells was “−ve (−ve and +ve indicate that the value is below and above respectively, the no significant effect threshold, defined as 30% inhibition at 1 μg/mL at the time point indicated)”. Further, the “Cell viability at time point … 24 h” value with d-U937 cells was “−ve (−ve and +ve indicate that the value is below and above respectively, the no significant effect threshold, defined as 30% inhibition at 1 μg/mL at the time point indicated)”.

For the compound `COc1ccc(-n2nc(C(C)C)cc2NC(=O)Nc2ccc(Oc3ccnc(Nc4cc(C)cc(C(=O)NCCN5CCOCC5)c4)n3)c3ccccc23)cc1` [Example 45, 3-((4-((4-(3-(3-isopropyl-1-(4-methoxyphenyl)-1H-pyrazol-5-yl)ureido)naphthalen-1-yl)oxy)pyrimidin-2-yl)amino)-5-methyl-N-(2-morpholinoethyl)benzamide], the IC50 in series [1] is 0.7 nM; at GSK3α, 1630 nM; in series [3], 135 nM; at Syk it was above 1320 nM. The EC50 in series [2] came to 1.6 nM. In the series on d-U937 cells, the “Cell viability at time point in d-U937 cells, 4 h” value is “−ve (−ve and +ve indicate that the value is below and above respectively, the no significant effect threshold, defined as 30% inhibition at 1 μg/mL at the time point indicated)”. Besides, the “Cell viability at time point … 24 h” value with d-U937 cells is “−ve (−ve and +ve indicate that the value is below and above respectively, the no significant effect threshold, defined as 30% inhibition at 1 μg/mL at the time point indicated)”.
